Patent publication US20170151351A1, “Gd-ENCAPSULATED CARBON DOTS AND METHODS OF MAKING AND USING THEREOF” (University of Georgia Research Foundation, Inc., priority 2015, published 2017)

Legend:
[1] = tested on: U87MG (human glioma) cells; details: no added Ca(II); cited from earlier work
[2] = tested on: U87MG (human glioma) cells; test: MTT cytotoxicity assay; assay type: cell-based; details: in the presence of 2.5 mM Ca(II)
Experimental: The cytotoxicity of Gd@C-dots was evaluated with U87MG (human glioma) cells using 3-(4, 5-dimethylthiazolyl-2)-2,5-diphenyltetrazolium bromide (MTT) assays. 2.5 mM Ca(II) was added into the incubation medium; while posing no direct toxicities to cells, such a high concentration of calcium can cause transmetallation to Gd complexes, leading to liberation of free Gd (Corot, C., et al., J. Magn. Reson. Imaging 1998, 8:695). […] The low toxicity was again attributed to the great resistance of Gd@C-dots against biodegradation and transmetallation.
c(RGDyK) affords strong binding affinity toward integrin αvβ3, a cancer biomarker that is seen overexpressed on neoplastic blood vessels and in many types of cancer cells. So the resulting conjugates (hereafter designated as RGD-Gd@C-dots) and unmodified Gd@C-dots were incubated with U87MG cells and imaged under a fluorescence microscope (ex/em: 360/460 nm). Specifically, U87MG cells were cultured in DMEM supplemented with 2 mM L-glutamine, 1.5 g/L sodium bicarbonate, 0.1 mM nonessential amino acids, 1.0 mM sodium pyruvate, and 10% fetal bovine serum at 37° C. in a humidified atmosphere with 5% CO2. 10^5 U87MG cells were seeded in 96-well plates (1×10^4 cells per well) 24 h prior to the experiments. […] The slides were mounted and imaged under an Olympus X71 fluorescence microscope.

[3] = at 7T, literature comparison; cited from earlier work

## O=C([O-])CN(CCN(CC(=O)[O-])CC(=O)O)CCN(CC(=O)[O-])CC(=O)O.[Gd+3] [Gd-DTPA]
[1]
  toxicity under normal cell culture conditions: no toxicities
[2]
  IC50 (cytotoxicity): 33.1 µg/mL
[3]
  r1 relaxivity: 3.1 mM⁻¹ s⁻¹
